# Entries after “also recorded” stand apart in the source; their conditions may differ.
# Tests used:
# [1] = system: blood vessels (capillaries) in the molecular layer of the cerebellum; assay: Acute slice vascular reactivity, cerebellar vermis slices (U46619 constriction, NMDA dilation); format: cell-based, mouse; parameters: effect on the NMDA response (vasodilation) / vasodilation (direct action on blood vessels): dose or concentration left out as unconfirmed; conditions: Fmr1 KO cerebellum, pre-incubation with sildenafil
# Fmr1 KO mice [2] = assay: Locomotor activity in activity boxes (open field); format: in vivo, mouse; conditions: sildenafil 7.5 mg/kg i.p.
# Method: Behavior experiments-locomotor activity: The locomotor activity was measured in an environment (activity boxes) novel to the animals, as described previously. Briefly, mice were handled for about 5 minutes once a day for one week before the testing. On the day of testing, animals were brought in their home cages to the anteroom (a room adjacent to the testing room separated by a door) and kept there for 30 minutes before drug or vehicle administration. Animals of both genotypes were randomly divided into two groups. One group received an i.p. injection of sildenafil (7.5 mg/kg; drug dissolved in sterilized PBS with 2% DMSO) and the other group an i.p. injection of the vehicle. One hour after the drug or vehicle administrations, the animals were placed in individual activity boxes (AccuScan Instruments, Inc., Columbus, OH, USA) (L×W×H=17.5 cm×10 cm×26 cm) in a dimly lit testing room where their locomotor activity was monitored for 90 min. The activity boxes were equipped with infrared sensors; beam breaks by the animals were used to assess locomotor activity. Data were collected using the Versamax™ Software (version 4.0, 2004; AccuScan Instruments, Inc.). The total horizontal activity for the whole 90 min session was used in the analysis.
# [3] = system: cerebellar stellate cells; assay: Minimal stimulation protocol, evoked IPSCs before and after HFS (failure rate of GABAergic transmission); format: cell-based, mouse; conditions: Fmr1 KO stellate cells
# [4] = system: blood vessels in the somatosensory cortex; assay: Acute slice vascular reactivity, somatosensory cortex; format: cell-based, mouse; parameters: effect on the NMDA response (vasodilation) / vasodilation (direct action on blood vessels): dose or concentration left out as unconfirmed; conditions: Fmr1 KO cortex, pre-incubation with sildenafil, at least some blood vessels
# Fmr1 KO mice [5] = assay: Prepulse inhibition of the acoustic startle response; format: in vivo, mouse; conditions: single dose of sildenafil 7.5 mg/kg i.p.
# Text: Behavior experiments-prepulse inhibition: PPI of the acoustic startle response (ASR) was studied in post-pubertal (PD 56-90) animals using an SR-LAB system (San Diego Instruments, San Diego, CA, USA) comprising two sound-attenuating chambers, each equipped with a cylindrical Plexiglas animal enclosure (length 16 cm, inner diameter 8.2 cm). A speaker positioned 24 cm directly above the enclosure provided the broadband tone pulses. A piezoelectric accelerometer affixed to the animal enclosure frame was used to detect and transduce motion resulting from the animals' startle response. Tone pulse parameters were controlled by a microcomputer using the software package (SR-LAB) and interface assembly that also digitized (0-4095), rectified, and recorded stabilimeter readings. All PPI studies were conducted between 09:00 and 17:00 h. Animals randomly received either saline or sildenafil (7.5 mg/kg i.p.) treatment. […] On the first two trials, the magnitude of the startle response to a 30 ms lasting 120 dB tone was measured. […] ASR was measured at each of the four prepulse intensities on five trials; animals were randomly presented with the startle tone alone during the other 10 trials. […]
# [6] = system: cerebellar stellate cells; assay: Voltage-clamp recordings of pharmacologically-isolated GABAR currents, HFS paired with depolarization; format: cell-based, mouse; conditions: Fmr1 KO stellate cells
# Text: (§1) Cerebellum slice preparation: Mice (P21-35) were anesthetized with isoflurane and immediately decapitated. A block of cerebellar vermis was rapidly dissected from the mouse head and submerged in an ice-cold cutting solution perfused with carbogen gas (95% O2, 5% CO2). Cutting solution contains (in mM): 235 sucrose, 2.5 KCl, 1.25 NaH2PO4, 28 NaHCO3, 0.5 CaCl2, 7 MgCl2, 28 D-glucose, 1 ascorbic acid, and 3 sodium pyruvate (pH 7.4; 305-315 mOsmol/L). The block of vermis was then fastened to a platform, transferred to the slicing chamber and again submerged in ice-cold cutting solution, bubbled with carbogen throughout the remainder of the procedure. Thin slices of cerebellar vermis (300 μm) were obtained with a vibrating tissue sectioner (Leica VT1200; Leica Instruments, Nussloch, Germany). The slices were transferred to oxygenated artificial cerebrospinal fluid (ACSF) and held at room temperature (21° C.-23° C.) for at least 1 h before recordings were performed. […]
# (§2) For extracellular stimulations, thin walled borosilicate glass electrodes (OD 1.65 mm, ID 1.15 mm; King Precision Glass Inc, Claremont, CA, USA) were used with a tip resistance of <3 MΩ when filled with ACSF. […] To minimize variability between responses, the stimulating electrode was positioned 50-100 μm away from the recorded cell. […]
# [7] = system: cerebellar stellate cells; assay: Cell-attached recordings of action currents (intrinsic plasticity) after HFS of parallel fibers; format: cell-based, mouse; conditions: Fmr1 KO stellate cells, pre-treatment with 100 μM sildenafil
# Text: as §1, §2
# [8] = system: cerebellar stellate cells; assay: Current-clamp recordings of PF-evoked synaptic events (GABAR plasticity); format: cell-based, mouse; conditions: Fmr1 KO stellate cells, 100 μM sildenafil
# Text: as §1, §2
compound,measurement,setting,value
CCCc1nn(C)c2c(=O)[nH]c(-c3cc(S(=O)(=O)N4CCN(C)CC4)ccc3OCC)nc12 [sildenafil],effect on the NMDA response (vasodilation),[1],little or no effect
same,enhanced locomotor activity / deficits in locomotion,Fmr1 KO mice [2],normalized the enhanced locomotor activity; also recorded: rescued
same,failure rate (mean),"[3]; 10−100 μM sildenafil in the patch electrode, baseline, n=5",90.9+/−3.57%
same,"failure rate, failed events (mean)","[3]; 10−100 μM sildenafil in the patch electrode, post-HFS, n=5",59.44+/−8.36%
same,iLTP following HFS of parallel fibers,[3]; sildenafil in the patch electrode,remarkable restoration of iLTP
same,effect on the NMDA response (vasodilation),[4],rescue some of the deficits
same,deficits in prepulse inhibition (PPI),Fmr1 KO mice [5],fully correct deficits; also recorded: rescued
same,"GABAR plasticity (NMDAR-mediated inhibitory synapse strengthening), voltage-clamp",[6]; 100 μM sildenafil,rescued the complete loss of GABAR plasticity
same,baseline properties of the cells,"[6]; current-clamp and voltage-clamp, data not shown","did not, however, affect baseline properties"
same,long-term increase in baseline firing rates following HFS of PFs,[7],restored the long-term increase in baseline firing rates
same,"GABAR plasticity (NMDAR-mediated inhibitory synapse strengthening), current-clamp",[8],rescued the complete loss of GABAR plasticity

# — patent publication US20240285637A1, “PHOSPHODIESTERASE INHIBITORS FOR THE MITIGATION OF FRAGILE X SYNDROME SYMPTOMS” (THE ROYAL INSTITUTION FOR THE ADVANCEMENT OF …, priority 2021, published 2024)
